Consider 28 molecules from paper PMC6864482, “Novel C7-Substituted Coumarins as Selective Monoamine Oxidase Inhibitors: Discovery, Synthesis and Theoretical Simulation” (Molecules, 2019).

Counter-ions that a name gives are not always drawn. Like-named read-outs stand apart in the source and are kept apart here.

The target in data set [1] is T1, hMAO-A (Homo sapiens, UniProt P21397).
T1 sequence (P21397 1-527): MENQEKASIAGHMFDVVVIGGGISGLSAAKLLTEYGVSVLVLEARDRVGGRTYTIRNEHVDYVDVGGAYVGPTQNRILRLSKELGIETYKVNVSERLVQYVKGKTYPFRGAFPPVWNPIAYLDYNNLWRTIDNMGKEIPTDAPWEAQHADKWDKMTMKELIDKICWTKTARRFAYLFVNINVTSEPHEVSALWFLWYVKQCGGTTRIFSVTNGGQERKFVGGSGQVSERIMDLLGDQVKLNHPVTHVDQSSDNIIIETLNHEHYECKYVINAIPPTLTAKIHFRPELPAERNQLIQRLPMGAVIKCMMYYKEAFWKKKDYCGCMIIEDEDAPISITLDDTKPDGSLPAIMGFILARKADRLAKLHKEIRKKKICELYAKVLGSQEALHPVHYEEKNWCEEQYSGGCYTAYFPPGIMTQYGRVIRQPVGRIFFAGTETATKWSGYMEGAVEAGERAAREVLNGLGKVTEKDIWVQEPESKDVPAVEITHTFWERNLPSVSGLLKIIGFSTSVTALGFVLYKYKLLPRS
Description: MAO-Glo inhibition assay, hMAO-A. Type of data set: biochemical. Here is the method: (§1) The inhibition and IC50 values of the identified C7-substituted coumarin analogues were assayed by Shanghai ChemPartner Co. Ltd., using MAO-GloTM assay kit (Promega Corporation, V1402). Two human MAO enzymes (Cat#31502, Cat#31503) were purchased from Active Motif. Clorgyline and R(-)-deprenyl were purchased as reference drugs from Sigma (Cat. No. M3778) and Abcam (Cat. No. ab120604), respectively. The MAO inhibition assays were carried out in modified HEPES buffer in light of the manufacturer’s protocol. Firstly, the tested compounds in DMSO were transferred to a 384-well plate by Echo. The enzyme solutions were then added into the plate and the plate was incubated for 15 min at room temperature (r.t.). Secondly, the luciferin derivative substrate was added to initiate the reaction. After 60 min incubation at r.t., the Luciferin detection reagent was added to each well to terminate the reaction and generate the luminescent signal. Before reading the signal, the plate was incubated for 20 min at r.t. Finally, plate reader was used to measure and record the luminescent signal and corresponding data were processed using GraphPad Prism 5.

The target in data set [2] is T2, hMAO-B (Homo sapiens, UniProt P27338).
T2 sequence (P27338 1-520): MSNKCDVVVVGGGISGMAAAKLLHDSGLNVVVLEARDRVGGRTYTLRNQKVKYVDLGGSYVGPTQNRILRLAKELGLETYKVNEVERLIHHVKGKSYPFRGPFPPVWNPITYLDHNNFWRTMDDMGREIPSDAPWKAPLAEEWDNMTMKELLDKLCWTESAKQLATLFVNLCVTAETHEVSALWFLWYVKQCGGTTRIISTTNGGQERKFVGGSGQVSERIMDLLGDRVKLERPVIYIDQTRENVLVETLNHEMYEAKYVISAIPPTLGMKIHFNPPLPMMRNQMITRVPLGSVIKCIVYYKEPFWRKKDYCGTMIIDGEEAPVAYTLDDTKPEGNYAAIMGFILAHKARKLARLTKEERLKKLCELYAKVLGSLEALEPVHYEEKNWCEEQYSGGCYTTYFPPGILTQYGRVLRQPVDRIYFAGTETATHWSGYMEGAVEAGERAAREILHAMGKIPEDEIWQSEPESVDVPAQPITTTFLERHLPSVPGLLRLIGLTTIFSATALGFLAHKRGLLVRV
Description: MAO-Glo inhibition assay, hMAO-B. The data set is classed as biochemical. How it is done: as §1

Data set [3] has as its target T1, hMAO-A. The settings on record: cited from earlier work.
Data set [4] has as its target T2, hMAO-B. The settings on record: cited from earlier work.
The mark [5] stands for this setting: Table S3, Esuprone derivatives, read-out: MAO-A* IC50.
Where [6] appears, read: purchased (Specs) or synthesized compounds, read-out: MAO-A IC50.
[7] abbreviates: purchased (Specs) or synthesized compounds.
[8] abbreviates: experimental activity of reference ligand C18 of 2V61, source not stated.
Where [9] appears, read: previously identified BRS-3D hits.
The mark [10] stands for this setting: pIC50 = −log(IC50), previously identified BRS-3D hits.

In turn, `Cc1c(OS(=O)(=O)c2ccc([N+](=O)[O-])cc2)ccc2c3c(c(=O)oc12)CCC3` (as salt: benzenesulfonate) [5c, 6-Methyl-4-oxo-1,2,3,4-tetrahydrocyclopenta[c]chromen-7-yl 4-nitrobenzenesulfonate] gave a melting point of 192 to 194 °C.
On the same count and under the same terms, then `O=c1cc(C2CC2)c2ccc(OS(=O)(=O)c3ccc([N+](=O)[O-])cc3)cc2o1` (as salt: benzenesulfonate) [7f, 4-Cyclopropyl-2-oxo-2H-chromen-7-yl 4-nitrobenzenesulfonate], with 192 to 194 °C.
As for `CCCc1cc(=O)oc2c(C)c(OS(=O)(=O)c3ccc(C)cc3)ccc12` (as salt: benzenesulfonate) [7i, 8-Methyl-2-oxo-4-propyl-2H-chromen-7-yl 4-methylbenzenesulfonate], the melting point was in the range of 144 to 146 °C.
The molecule `CCCc1cc(=O)oc2c(C)c(OS(=O)(=O)c3ccc([N+](=O)[O-])cc3)ccc12` (as salt: benzenesulfonate) [7j, 8-Methyl-2-oxo-4-propyl-2H-chromen-7-yl 4-nitrobenzenesulfonate] showed a melting point of 171 to 174 °C.
Consider `CCS(=O)(=O)Oc1ccc2c3c(c(=O)oc2c1C)CCC3` [5a, 6-Methyl-4-oxo-1,2,3,4-tetrahydrocyclopenta[c]chromen-7-yl ethanesulfonate], for which the melting point was in the range of 150 to 151 °C. The IC50 at hMAO-A [1] (setting [5]) was found to be 11 nM. Also, the IC50 against hMAO-B [2] (Table S3, Esuprone derivatives) was determined as 2300 nM.
Taken in the same sequence, the figures for `Cc1ccc(S(=O)(=O)Oc2ccc3c4c(c(=O)oc3c2C)CCC4)cc1` [5b, 6-Methyl-4-oxo-1,2,3,4-tetrahydrocyclopenta[c]chromen-7-yl 4-methylbenzenesulfonate] were 152 °C, 12 nM and 4900 nM.
On to `Cc1c(OS(=O)(=O)c2ccc([N+](=O)[O-])cc2)ccc2c3c(c(=O)oc12)CCC3` [5c, 6-Methyl-4-oxo-1,2,3,4-tetrahydrocyclopenta[c]chromen-7-yl 4-nitrobenzenesulfonate], for which the IC50 on hMAO-A [1] (setting [5]) was less than 5 nM; at hMAO-A [1] (read-out: hMAO-A IC50), approximately 5 nM; against hMAO-B [2] (Table S3, Esuprone derivatives) it was 590 nM.
Molecule `Cc1c(Oc2nnc(-c3ccccc3)s2)ccc2c3c(c(=O)oc12)CCC3` [5d] gave a melting point of 140 °C. At hMAO-A [1] (setting [6]), the IC50 was found to be 96 nM. This molecule also showed an IC50 against hMAO-B [2] (setting [7]) of 2300 nM.
The molecule `CCCc1cc(=O)oc2cc(Oc3nnc(-c4ccccc4)s3)ccc12` [7b, 7-((5-Phenyl-1,3,4-thiadiazol-2-yl)oxy)-4-propyl-2H-chromen-2-one] returned a melting point of 150 °C. On hMAO-A [1] (setting [6]), the IC50 was found to be 24 nM.
Consider `Cc1c(C)c2cc(Cl)c(Oc3nnc(-c4ccccc4)s3)cc2oc1=O` [7c, 6-Chloro-3,4-dimethyl-7-((5-phenyl-1,3,4-thiadiazol-2-yl)oxy)-2H-chromen-2-one], for which the melting point was in the range of 171 to 173 °C. In addition, at hMAO-A [1] (setting [6]), the IC50 came out at 810 nM. The same molecule came in with an IC50 on hMAO-B [2] (setting [7]) of 440 nM.
On to `CCS(=O)(=O)Oc1ccc2c(C3CC3)cc(=O)oc2c1` [7d, 4-Cyclopropyl-2-oxo-2H-chromen-7-yl ethanesulfonate], for which the melting point is 92 °C. Besides, on hMAO-A [1] (setting [5]), the IC50 came to 1400 nM. In addition, the IC50 against hMAO-B [2] (Table S3, Esuprone derivatives) was more than 100000 nM.
Taken in the same sequence, the figures for `Cc1ccc(S(=O)(=O)Oc2ccc3c(C4CC4)cc(=O)oc3c2)cc1` [7e, 4-Cyclopropyl-2-oxo-2H-chromen-7-yl 4-methylbenzenesulfonate] were 132 to 134 °C, 1100 nM and 9500 nM.
Consider `O=c1cc(C2CC2)c2ccc(OS(=O)(=O)c3ccc([N+](=O)[O-])cc3)cc2o1` [7f, 4-Cyclopropyl-2-oxo-2H-chromen-7-yl 4-nitrobenzenesulfonate], for which the IC50 at hMAO-A [1] (setting [5]) was 95 nM; against hMAO-B [2] (Table S3, Esuprone derivatives) it was 9000 nM.
The molecule `O=c1cc(C2CC2)c2ccc(Oc3nnc(-c4ccccc4)s3)cc2o1` [7g, 4-Cyclopropyl-7-((5-phenyl-1,3,4-thiadiazol-2-yl)oxy)-2H-chromen-2-one] yielded a melting point of 158 to 160 °C. For the same molecule, the IC50 at hMAO-A [1] (setting [6]) amounted to 2000 nM. Further, the IC50 against hMAO-B [2] (setting [7]) is 6200 nM.
On to `CCCc1cc(=O)oc2c(C)c(OS(=O)(=O)CC)ccc12` [7h, 8-Methyl-2-oxo-4-propyl-2H-chromen-7-yl ethanesulfonate], for which the melting point fell in the range of 78 to 80 °C. The IC50 at hMAO-A [1] (setting [5]) was 910 nM. Besides, the IC50 against hMAO-B [2] (Table S3, Esuprone derivatives) stood at 9900 nM.
For `CCCc1cc(=O)oc2c(C)c(OS(=O)(=O)c3ccc(C)cc3)ccc12` [7i, 8-Methyl-2-oxo-4-propyl-2H-chromen-7-yl 4-methylbenzenesulfonate], the IC50 on hMAO-A [1] (setting [5]) amounted to 170 nM; at hMAO-B [2] (Table S3, Esuprone derivatives), 4100 nM.
Regarding `CCCc1cc(=O)oc2c(C)c(OS(=O)(=O)c3ccc([N+](=O)[O-])cc3)ccc12` [7j, 8-Methyl-2-oxo-4-propyl-2H-chromen-7-yl 4-nitrobenzenesulfonate], the IC50 at hMAO-A [1] (setting [5]) is 29 nM; against hMAO-B [2] (Table S3, Esuprone derivatives), 1700 nM.
`CCCc1cc(=O)oc2c(C)c(Oc3nnc(-c4ccccc4)s3)ccc12` [7k, 8-Methyl-7-((5-phenyl-1,3,4-thiadiazol-2-yl)oxy)-4-propyl-2H-chromen-2-one] gave a melting point of 110 to 112 °C. The IC50 at hMAO-A [1] (setting [6]) worked out at 21 nM. The same molecule yielded an IC50 against hMAO-B [2] (setting [7]) of 120 nM.
On to `CNCc1cc(=O)oc2cc(OCc3cccc(Cl)c3)ccc12` [C18, reference compound], for which the “MAO-A pIC50” value on hMAO-A [3] (setting [8]) is 4.8. Moreover, the “MAO-B pIC50” value on hMAO-B [4] (setting [8]) was 7.
With `CCS(=O)(=O)Oc1ccc2c(C)c(C)c(=O)oc2c1` [Esuprone, reference compound], the IC50 at hMAO-A [3] (comparison value under Table S3, MAO-A by context, source not stated, read-out: IC50 value of Esuprone) is 10.7 nM.
Regarding `Cc1c(OC(=O)C2CC2)ccc2c3c(c(=O)oc12)CCC3` [FR1], the values for the IC50 on hMAO-A [1] (setting [6]) and against hMAO-B [2] (setting [7]) were 1.5 nM and more than 1000 nM, respectively. The same molecule had an inhibition at 10 µM at hMAO-B [2] of 75%.
For `Cc1c(OCC(=O)N(C)C)ccc2c3c(c(=O)oc12)CCC3` [FR2], the IC50 at hMAO-A [1] (setting [6]) is 2820 nM; against hMAO-B [2] (setting [7]) it was more than 10000 nM. Further, the inhibition at 10 µM at hMAO-B [2] was 12%.
Take `C=CCOC(=O)COc1ccc2c3c(c(=O)oc2c1C)CCCC3` [FR3]: the IC50 was 740 nM on hMAO-A [1] (setting [6]) and more than 5000 nM on hMAO-B [2] (setting [7]). The inhibition at 10 µM at hMAO-B [2] is 66%.
`O=C(COc1ccc2c3c(c(=O)oc2c1)CCC3)c1ccc(Cl)cc1` [FR4] came in with an inhibition at 10 µM against hMAO-A [1] of 23%. Further, the figures for the IC50 on hMAO-A [1] (setting [6]) and against hMAO-B [2] (setting [7]) were more than 10000 nM and 18 nM, respectively.
`Cc1cc(=O)oc2cc(OCCOc3ccccc3)ccc12` [FR5] yielded an inhibition at 10 µM at hMAO-A [1] of 28%. In addition, the IC50 was more than 10000 nM on hMAO-A [1] (setting [6]) and 15 nM against hMAO-B [2] (setting [7]).
`Cc1cc(=O)oc2c(C)c(OCC(=O)N(C)C)ccc12` [M29]: at hMAO-A [3] (setting [9]), the “MAO-A Avg. Inh% at 10 uM” value was 75%. The “MAO-A pIC50” value on hMAO-A [3] (setting [10]) is 5.6. Also, the 50% inhibitory concentration (IC50) at hMAO-A [3] (previously identified BRS-3D hits, read-out: MAO-A IC50) was 2290 nM. In addition, the “MAO-B Avg. Inh% at 10 uM” value at hMAO-B [4] (setting [9]) is 12%. Also, the “MAO-B pIC50” value on hMAO-B [4] (setting [10]) was 4.
For `CCc1cc(=O)oc2cc(OCC(=O)N(C)C)ccc12` [M30], the “MAO-A Avg. Inh% at 10 uM” value at hMAO-A [3] (setting [9]) is 56%. On hMAO-B [4] (setting [9]), the “MAO-B Avg. Inh% at 10 uM” value is 22%.
`Cc1cc(=O)oc2c(C)c(Oc3nnc(-c4ccccc4)s3)ccc12` [SP1]: the results for the IC50 at hMAO-A [1] (setting [6]) and at hMAO-B [2] (setting [7]) were 19 nM and more than 5000 nM, respectively. The molecule also yielded an inhibition at 10 µM on hMAO-B [2] of 64%.
